In US9951064B2, “Azaindazole compounds as inhibitors of T790M containing EGFR mutants” (Genentech, Inc., priority 2013, dated 2018):

What was measured:
[1] = molecular target: T1, EGFR T790M L858R (Homo sapiens, UniProt P00533, L858R/T790M); assay: EGFR T790M L858R biochemical assay (Caliper mobility shift); details: 5 μM ATP; apparent Ki (Morrison fit) converted by Cheng-Prusoff, Km of ATP 1.3 μM
T1 construct: purchased Life Technologies PV4879
Outline: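 Reactions run 30 minutes at room temperature (22 °C), stopped with 80 mM EDTA. Phosphorylated product and substrate separated electrophoretically and quantified by Caliper mobility shift.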

[2] = molecular target: T2, EGFR del746-750 T790M (Homo sapiens, UniProt P00533, DEL746-750/T790M); assay: EGFR del746-750 T790M biochemical assay (Caliper mobility shift); details: 5 μM ATP; apparent Ki (Morrison fit) converted by Cheng-Prusoff, Km of ATP 2.1 μM; read-out: EGFR(T790M/d746-750) Ki
T2 construct: purchased Carna Biosciences 08-528
Outline: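 Kinase reactions ran 30 min at room temperature (22 °C), then were stopped with 80 mM EDTA. Phosphorylated product and substrate were separated electrophoretically and quantified by Caliper mobility shift.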

[3] = molecular target: T3, phosphor-EGFR in H1975(L585R/T790M) mutant EGFR expressing cells (Homo sapiens, UniProt P00533, L858R/T790M); assay: H1975 pEGFR MSD cellular assay; type: cell-based; details: NCI-H1975 cells, serum starved, 1 hour compound incubation, pEGFR Tyr1068 MSD; read-out: HI975 pEGFR EC50
T3 construct: host or cells: NCI-H1975
Outline: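 NCI-H1975 cells, 30,000/well, serum-starved overnight, then treated 1 hour at 37° C with serially diluted compounds in serum-free medium (0.5% DMSO). Lysates captured on anti-phospho-EGFR plates overnight at 4° C, detected with SULFO-TAG anti-total EGFR by electrochemiluminescence. Inhibition vs untreated controls; EC50 from 4-parameter logistic fit.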

[4] = tested on: H1975 (EGFR T790M/L858R) cell proliferation; assay: H1975 proliferation assay (Cell Titer-Glo); type: cell-based; details: Homo sapiens, NCI-H1975, 72 h, NCI-H1975 cells, 72 hour incubation, read-out: H1975 antiproliferative EC50
Procedure: H1975 Proliferation Assays
All cell culture reagents were purchased from Invitrogen/Gibco. Cells are cultured at 37° C. at 5% CO2 and split as recommended by ATCC.

T2 sequence (P00533 with tags, fused parts or gaps DEL746-750/T790M limits assumed): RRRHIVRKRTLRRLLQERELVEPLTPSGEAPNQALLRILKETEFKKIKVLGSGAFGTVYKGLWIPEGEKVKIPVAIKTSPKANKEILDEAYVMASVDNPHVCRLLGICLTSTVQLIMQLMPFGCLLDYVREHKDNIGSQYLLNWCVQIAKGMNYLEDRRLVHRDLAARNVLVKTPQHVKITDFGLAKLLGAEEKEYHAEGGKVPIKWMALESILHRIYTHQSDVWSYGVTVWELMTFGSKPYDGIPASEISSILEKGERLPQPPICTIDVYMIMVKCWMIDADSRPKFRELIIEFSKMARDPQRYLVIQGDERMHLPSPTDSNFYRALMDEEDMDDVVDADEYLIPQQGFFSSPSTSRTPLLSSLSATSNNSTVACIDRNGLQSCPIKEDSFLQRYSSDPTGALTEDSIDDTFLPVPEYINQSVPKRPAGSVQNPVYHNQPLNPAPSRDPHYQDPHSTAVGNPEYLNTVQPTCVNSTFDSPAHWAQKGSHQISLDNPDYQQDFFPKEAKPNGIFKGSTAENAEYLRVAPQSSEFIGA
T1 sequence (P00533 25-1210 T790M/L858R): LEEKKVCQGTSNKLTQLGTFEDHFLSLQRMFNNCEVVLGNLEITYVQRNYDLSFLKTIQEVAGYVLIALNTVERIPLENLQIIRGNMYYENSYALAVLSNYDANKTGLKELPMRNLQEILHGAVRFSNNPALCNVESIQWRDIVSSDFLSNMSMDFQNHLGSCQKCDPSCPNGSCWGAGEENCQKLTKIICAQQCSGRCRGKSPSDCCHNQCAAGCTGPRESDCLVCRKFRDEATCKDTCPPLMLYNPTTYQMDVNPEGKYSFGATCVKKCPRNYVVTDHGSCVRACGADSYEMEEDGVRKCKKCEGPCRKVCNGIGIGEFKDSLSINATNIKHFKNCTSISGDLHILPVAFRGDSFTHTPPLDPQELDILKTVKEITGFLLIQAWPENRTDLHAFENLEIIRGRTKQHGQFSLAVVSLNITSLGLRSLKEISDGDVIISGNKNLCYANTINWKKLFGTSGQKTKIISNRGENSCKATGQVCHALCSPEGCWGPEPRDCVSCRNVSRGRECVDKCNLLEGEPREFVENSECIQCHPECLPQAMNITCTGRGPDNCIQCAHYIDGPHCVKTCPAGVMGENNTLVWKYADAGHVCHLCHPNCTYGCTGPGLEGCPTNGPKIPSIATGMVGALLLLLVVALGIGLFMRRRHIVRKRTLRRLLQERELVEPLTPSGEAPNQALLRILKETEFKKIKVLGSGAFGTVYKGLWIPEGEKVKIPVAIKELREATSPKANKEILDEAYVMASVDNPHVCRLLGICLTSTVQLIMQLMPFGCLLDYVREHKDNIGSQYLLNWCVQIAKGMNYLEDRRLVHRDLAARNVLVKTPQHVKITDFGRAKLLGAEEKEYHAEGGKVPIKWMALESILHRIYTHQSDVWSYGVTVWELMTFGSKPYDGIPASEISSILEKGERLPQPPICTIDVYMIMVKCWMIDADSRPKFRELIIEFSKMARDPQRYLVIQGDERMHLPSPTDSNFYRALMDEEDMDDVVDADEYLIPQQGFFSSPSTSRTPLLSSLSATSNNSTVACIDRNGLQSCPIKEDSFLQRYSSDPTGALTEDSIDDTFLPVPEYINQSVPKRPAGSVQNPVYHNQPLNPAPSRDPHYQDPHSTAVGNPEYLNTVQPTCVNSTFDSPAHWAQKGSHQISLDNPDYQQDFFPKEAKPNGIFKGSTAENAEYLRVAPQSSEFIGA
T3 sequence (P00533 25-1210 T790M/L858R): as above

SMILES: CC(C)n1nc(N2CCC(O)C2=O)c2cnc(Nc3ccnc(-c4cnn(S(=O)(=O)C5CC5)c4)n3)cc21 (stereo in doubt) [Example 199, (S)-1-(6-((2-(1-(Cyclopropylsulfonyl)-1H-pyrazol-4-yl)pyrimidin-4-yl)amino)-1-isopropyl-1H-pyrazolo[4,3-c]pyridin-3-yl)-3-hydroxypyrrolidin-2-one]
- Ki [1]: 1.5 nM
- Ki [2]: 1.5 nM
- EC50 [3]: 230 nM
- EC50 [4]: 630 nM

SMILES: COC1CCN(c2nccc(Nc3cc4c(cn3)c(N3CC5(COC5)C3)nn4C(C)C)n2)CC1 [Example 2, 1-Isopropyl-N-(2-(4-methoxypiperdin-1-yl)pyrimidin-4-yl)-3-(2-oxa-6-azaspiro[3.3]heptan-6-yl)-1H-pyrazolo[4,3-c]pyridine-6-amine]
- Ki [1]: 2.1 nM
- Ki [2]: 9.7 nM
- EC50 [3]: 81.7 nM
- EC50 [4]: 388 nM

SMILES: CC(C)n1nc(N2CC3(COC3)C2)c2cnc(Nc3ccnc(N4CCC(O)C(C)(C)C4)n3)cc21 (stereo not shown) [Example 3, 1-(4-((1-Isopropyl-3-(2-oxa-6-azaspiro[3.3]heptan-6-yl)-1H-pyrazolo[4,3-c]pyridin-6-yl)amino)pyrimidin-2-yl)-3,3-dimethylpiperidin-4-ol]
- Ki [1]: 1.4 nM
- Ki [2]: 1.6 nM
- EC50 [3]: 38.6 nM
- EC50 [4]: 159 nM

SMILES: CC(C)n1nc(NCCO)c2cnc(Nc3ccnc(-c4cnn(S(=O)(=O)C5CC5)c4)n3)cc21 [Example 6, 2-((6-((2-(1-(Cyclopropylsulfonyl)-1H-pyrazol-4-yl)pyrimidin-4-yl)amino)-1-isopropyl-1H-pyrazolo[4,3-c]pyridin-3-yl)amino)ethanol]
- Ki [1]: 0.9 nM
- Ki [2]: 1.2 nM
- EC50 [3]: 73.8 nM
- EC50 [4]: 877 nM

SMILES: CC(C)n1nc(N2CCCC2)c2cnc(Nc3ccnc(N4CCC(O)C(C)(C)C4)n3)cc21 (stereo not shown) [Example 8, 1-(4-((1-Isopropyl-3-(pyrrolidin-1-yl)-1H-pyrazolo[4,3-c]pyridin-6-yl)amino)pyrimidin-2-yl)-3,3-dimethylpiperidin-4-ol]
- Ki [1]: 1.3 nM
- Ki [2]: 1.3 nM
- EC50 [3]: 30.3 nM
- EC50 [4]: 499 nM

SMILES: Cc1cn[nH]c1-c1nn(C(C)C)c2cc(Nc3ccnc(N4CCC(O)C(C)(C)C4)n3)ncc12 (stereo not shown) [Example 10, 1-(4-((1-Isopropyl-3-(4-methyl-1H-pyrazol-5-yl)-1H-pyrazolo[4,3-c]pyridin-6-yl)amino)pyrimidin-2-yl)-3,3-dimethylpiperidin-4-ol]
- Ki [1]: 7.5 nM
- Ki [2]: 32.4 nM
- EC50 [3]: 349 nM
- EC50 [4]: 1710 nM

SMILES: COC1CCN(c2nccc(Nc3cc4c(cn3)c(N3CCCC3)nn4C(C)C)n2)CC1 [Example 15, 1-Isopropyl-N-(2-(4-methoxypiperidin-1-yl)pyrimidin-4-yl)-3-(pyrrolidin-1-yl)-1H-pyrazolo[4,3-c]pyridin-6-amine]
- Ki [1]: 1.2 nM
- Ki [2]: 2.8 nM
- EC50 [3]: 26.6 nM
- EC50 [4]: 380 nM

SMILES: CCS(=O)(=O)n1cc(-c2nccc(Nc3cc4c(cn3)c(N3CC(C(=O)N(C)C)C3)nn4C(C)C)n2)cn1 [Example 17, 1-(6-(2-(1-(Ethylsulfonyl)-1H-pyrazol-4-yl)pyrimidin-4-ylamino)-1-isopropyl-1H-pyrazolo[4,3-c]pyridin-3-yl)-N, N-dimethylazetidine-3-carboxamide]
- Ki [1]: 0.7 nM
- Ki [2]: 0.8 nM
- EC50 [3]: 19.2 nM
- EC50 [4]: 236 nM

SMILES: CC(C)n1nc(N2CCC(O)C2)c2cnc(Nc3ccnc(-c4cnn(S(=O)(=O)C5CC5)c4)n3)cc21 (stereo not shown) [Example 18, 1-(6-(2-(1-(Cyclopropylsulfonyl)-1H-pyrazol-4-yl)pyrimidin-4-ylamino)-1-isopropyl-1H-pyrazolo[4,3-c]pyridin-3-yl) pyrrolidin-3-ol]
- Ki [1]: 0.8 nM
- Ki [2]: 0.6 nM
- EC50 [3]: 7.5 nM
- EC50 [4]: 201 nM

SMILES: COC1CCN(c2nccc(Nc3cc4c(cn3)c(N)nn4C[C@H]3CC[C@H](N)CC3)n2)CC1 [Example 24, 1-(4-(Aminocyclohexyl)methyl)-N^6-[2-(4-methoxypiperidin-1-yl)-pyrimidin-4-yl]-1H-pyrazolo[4,3-c]pyridine-3,6-diamine]
- Ki [1]: 9.2 nM
- Ki [2]: 9.8 nM
- EC50 [3]: 2060 nM
- EC50 [4]: > 10000 nM
